Measured values published in patent US20220177561A1, “Models and Methods Useful for the Treatment of Serrated Colorectal Cancer” (Sanford Burnham Prebys Medical Discovery Institute, priority 2018, published 2022).

Assays:
[1] = tested on: serrated tumors of DKO^IEC mice; experiment: TGF-βR1-specific inhibition experiment in DKO^IEC mice; assay type: in vivo, mouse
Method: For CD8+ T cell depletion (FIG. 4), 10-week-old LKO^IEC mice were injected intraperitoneally with 200 μg of anti-CD8 antibody (clone 2.43) or control IgG twice a week for 5 weeks until they were sacrificed. For the TGF-βR1-specific inhibition experiment, 10-week-old DKO^IEC mice were treated twice a day with a dose of 10 mg of galunisertib (Tauriello et al., 2018) per os for 6 weeks until they were sacrificed. Control mice were treated with vehicle. For checkpoint immunotherapy, either 10-week-old or 13-week-old DKO^IEC mice were injected intraperitoneally with a dose of 10 mg/kg (body mass) of anti-PD-L1 antibody (clone 6E11) twice a week for 3 weeks until they were sacrificed. For the combination therapy of anti-PD-L1 antibody and TGF-βR1-specific inhibitor, 23-week-old DKO^IEC mice were treated twice a day with a dose of 10 mg of galunisertib per os and injected intraperitoneally with a dose of 10 mg/kg (body mass) of anti-PD-L1 antibody twice a week for 3 weeks until they were sacrificed. Anti-PD-L1 antibody was provided by de Sauvage FJ (Genentech).
Organs were isolated, rinsed in ice-cold PBS, fixed in 10% neutral buffered formalin overnight at 4° C., dehydrated, and embedded in paraffin. Sections (5 μm) were stained with hematoxylin and eosin (H&E). For immunohistochemistry, sections were deparaffinized, rehydrated, and then treated for antigen retrieval. After blocking in Protein Block Serum-Free solutions (DAKO), tissues were incubated with primary antibody overnight at 4° C. followed by incubation with biotinylated secondary antibody. Endogenous peroxidase was quenched in 3% H2O2 in water for 10 min at room temperature. Antibodies were visualized with avidin/biotin complex (e.g., Vectastain Elite; Vector Laboratories) using diaminobenzidine as the chromagen. For immunofluorescence, fresh frozen organs were embedded in Tissue-Tek OCT compound (e.g., Sakura) and section of 10 μm were fixed in methanol, washed with PBS and then incubated with the primary antibodies. Washed sections were incubated with Alexa-conjugated secondary antibodies (e.g., Life Technologies) and examined with a Zeiss LSM 710 NLO Confocal Microscope. In situ hybridization for murine Ereg was carried out using RNAscope Multiplex Fluorescent Assay kit (Advanced Cell Diagnostics) following manufacturer's instructions. The probe corresponding to CDS region of murine Ereg (Accession #: NM_007950.2, probe region: 116-1496; Advanced Cell Diagnostics; Cat #: 437981). Cell death was analyzed using the In-Situ Cell Death Detection kit, TMR red (Thermo) for TUNEL. Masson's Trichrome staining was carried out following manufacturer's instructions (Sigma HT15-1KT).
Flow cytometry experiments were performed using fresh small intestinal tissue and organoid preparations. For the analyses of small intestinal tissue, a half part of duodenum, jejunum, and ileum was used for quantitative flow cytometry analysis of immune cell population of lamina propria. Briefly, small intestines were rinsed in cold PBS, minced into small pieces, incubated in HBSS with EDTA (5 mM) and digested with collagenase (0.05 mg/ml) for 30 min at 37° C., followed by a discontinuous Percoll separation method (40 and 75%) to purify immune cells. The cells concentrated at the interface were collected and washed in cold PBS. Red blood cells were removed with lysing buffer (BD Pharm Lyse) and live cells were counted using Trypan blue and then saturated with mouse Fc Block (purified anti-mouse CD16/CD32; 1:50; clone 2.4G2; BD Pharmingen) 30 min at 4° C. before incubating with specific dyed antibodies.
Total RNA from mouse tissues and cultured organoids was extracted using the TRIZOL reagent (e.g., Invitrogen) and the RNeasy Mini Kit (e.g., Qiagen), followed by DNase treatment. […]

WT organoids = experiment: Interferon response of WT small intestine organoids (3D culture); assay type: cell-based, mouse
Method: (§1) For generation of small intestine organoids, organoids were collected in ice-cold TrypLE solution (e.g., Life Technologies) to remove Matrigel, then pipetted 5 cycles and incubated 5 min at 37° C. to obtain single-cell suspension. Cells were washed twice in PBS 3% FBS and resuspended at room temperature with PBS with 100 μg/ml DNase I for 10 min before staining with anti-H-2Kb (clone AF6-88.5.5.3; eBioscience). For antigen presentation in MODE-K cells, cells were washed in PBS, trypsinized and wash with warm medium. Then, cells were resuspended and stained with anti-H-2Kk (clone 36-7-5; BioLegend) and anti-H-2Dk (clone 15-5-5; BD Pharmingen). Dead cells were excluded after 7-AAD staining. All flow cytometry experiments were performed on a BD LSRFortessa 14-colors analyzer at the Sanford Burnham Prebys Medical Discovery Institute Shared FACS Facility and flow cytometry data were analyzed using FlowJo software (Tree Star Inc.).
(§2) Intestinal epithelial cell (IEC) isolation was performed as described previously Llado et al., Repression of Intestinal Stem Cell Function and Tumorigenesis through Direct Phosphorylation of β-catenin and Yap by PKCζ. Cell Reports (2015) 10, 740-754, with some modification. […] Adenoma fragments were counted after isolation and a total of 250-500 fragments were mixed with 100 μl of growth factor reduced-Matrigel and plated in 12- or 24-well plates. […]

ZKO organoids = experiment: Interferon response of PKCζ-deficient (ZKO) small intestine organoids (3D culture); assay type: cell-based, mouse; conditions: 3 μM for 24 hours then drug-free culture, qRT-PCR
Method: as §1, §2

[2] = 10-week-old DKO^IEC mice, 10 mg per os twice a day for 6 weeks
[3] = 10-week-old DKO^IEC mice, 6 weeks

SMILES	tumor load [1, 2]	tumor number [1, 2]	tumor size [1, 2]	incidence of invasive cancer [1, 3]	progression of SSA/P to the adenocarcinoma stage [1, 3]	proportion of PD-L1^+/CD45^+ cells infiltrating DKO^IEC tumors ([1]; CD45/PD-L1 staining)	collagen deposition ([1]; Masson's trichrome staining of small intestinal tumors)	proportion of Th17 cells in the tumors ([1]; flow cytometry)	proportion of CD8^+ T cells ([1]; flow cytometry, DKO^IEC tumors)	proportion of CD11b^+ myeloid cells ([1]; flow cytometry, DKO^IEC tumors)	proportion of Treg cells ([1]; flow cytometry, DKO^IEC tumors)	expression of TGF-β-responsive genes, such as Angpt12, Cdkn2b, Il11, and Ereg ([1]; qRT-PCR)	stromal phospho-SMAD2 ([1]; staining of small intestinal tumors)	expression of interferon-responsive genes Irf7, Oas1a, Isg15, and Cxcl10 (WT organoids; 3 μM for 24 hours then drug-free culture, qRT-PCR)	MHC class I long-chain H-2K^b on the surface (WT organoids; flow cytometry)	expression of interferon-responsive genes Irf7, Oas1a, Isg15, and Cxcl10 (ZKO organoids)
Cc1cccc(-c2nn3c(c2-c2ccnc4ccc(C(N)=O)cc24)CCC3)n1 [galunisertib]	did not reduce	did not reduce	did not reduce	especially reduced	suppressed	not affected	inhibition	reduction	did not significantly change	did not significantly change	did not significantly change	reduced expression	inhibition			
Nc1ncn([C@H]2C[C@H](O)[C@@H](CO)O2)c(=O)n1 [5-AZA-CdR, 5-aza-2-deoxycytidine]														robustly induced	upregulated	severely abrogated
